Measured values taken from patent US12448369B2 (Edgewise Therapeutics, Inc., priority 2023, dated 2025).

Legend:
[1] = test system: Rabbit Psoas myofibrils (skeletal myosin ATPase); test: Myofibril ATPase assay, rabbit psoas (skeletal) myofibrils; type: biochemical; conditions: rabbit psoas myofibrils
Summary of the method: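 Values are concentrations giving 75% (Y75) or 125% (Y125) of vehicle ATPase activity, from 4-parameter logistic fits of normalized rates. Rates came from linear regression of A340 over 75 min, NADH oxidation coupled to ADP via PK-LDH. Enzyme source: skeletal myofibrils from rabbit psoas, pH 7.0 pCa buffer.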

[2] = test system: Porcine atria myofibrils (atrial myosin ATPase); test: Myofibril ATPase assay, porcine atria myofibrils; type: biochemical; conditions: porcine atria myofibrils
Summary of the method: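 Y75 (25% inhibition) or Y125 (activation) values come from 4-parameter logistic fits of vehicle-normalized rates. Rates are linear-regression slopes of NADH absorbance at 340 nm, read kinetically over 75 min, with ADP coupled to NADH oxidation via pyruvate kinase/lactate dehydrogenase.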

[3] = biological target: T1, Porcine ventricle myofibrils (ventricular myosin ATPase) (Sus scrofa, UniProt P79293); test: Myofibril ATPase assay, porcine ventricle myofibrils; type: biochemical, porcine (Yucatan minipigs); conditions: porcine ventricle myofibrils
T1 construct: Myofibrils from porcine cardiac muscle was isolated from the left ventricle of Yucatan minipigs; tissue Exemplar Genetics; host or cells: left ventricle of Yucatan minipigs, myofibrils prepared in house
T1 sequence (P79293 whole entry): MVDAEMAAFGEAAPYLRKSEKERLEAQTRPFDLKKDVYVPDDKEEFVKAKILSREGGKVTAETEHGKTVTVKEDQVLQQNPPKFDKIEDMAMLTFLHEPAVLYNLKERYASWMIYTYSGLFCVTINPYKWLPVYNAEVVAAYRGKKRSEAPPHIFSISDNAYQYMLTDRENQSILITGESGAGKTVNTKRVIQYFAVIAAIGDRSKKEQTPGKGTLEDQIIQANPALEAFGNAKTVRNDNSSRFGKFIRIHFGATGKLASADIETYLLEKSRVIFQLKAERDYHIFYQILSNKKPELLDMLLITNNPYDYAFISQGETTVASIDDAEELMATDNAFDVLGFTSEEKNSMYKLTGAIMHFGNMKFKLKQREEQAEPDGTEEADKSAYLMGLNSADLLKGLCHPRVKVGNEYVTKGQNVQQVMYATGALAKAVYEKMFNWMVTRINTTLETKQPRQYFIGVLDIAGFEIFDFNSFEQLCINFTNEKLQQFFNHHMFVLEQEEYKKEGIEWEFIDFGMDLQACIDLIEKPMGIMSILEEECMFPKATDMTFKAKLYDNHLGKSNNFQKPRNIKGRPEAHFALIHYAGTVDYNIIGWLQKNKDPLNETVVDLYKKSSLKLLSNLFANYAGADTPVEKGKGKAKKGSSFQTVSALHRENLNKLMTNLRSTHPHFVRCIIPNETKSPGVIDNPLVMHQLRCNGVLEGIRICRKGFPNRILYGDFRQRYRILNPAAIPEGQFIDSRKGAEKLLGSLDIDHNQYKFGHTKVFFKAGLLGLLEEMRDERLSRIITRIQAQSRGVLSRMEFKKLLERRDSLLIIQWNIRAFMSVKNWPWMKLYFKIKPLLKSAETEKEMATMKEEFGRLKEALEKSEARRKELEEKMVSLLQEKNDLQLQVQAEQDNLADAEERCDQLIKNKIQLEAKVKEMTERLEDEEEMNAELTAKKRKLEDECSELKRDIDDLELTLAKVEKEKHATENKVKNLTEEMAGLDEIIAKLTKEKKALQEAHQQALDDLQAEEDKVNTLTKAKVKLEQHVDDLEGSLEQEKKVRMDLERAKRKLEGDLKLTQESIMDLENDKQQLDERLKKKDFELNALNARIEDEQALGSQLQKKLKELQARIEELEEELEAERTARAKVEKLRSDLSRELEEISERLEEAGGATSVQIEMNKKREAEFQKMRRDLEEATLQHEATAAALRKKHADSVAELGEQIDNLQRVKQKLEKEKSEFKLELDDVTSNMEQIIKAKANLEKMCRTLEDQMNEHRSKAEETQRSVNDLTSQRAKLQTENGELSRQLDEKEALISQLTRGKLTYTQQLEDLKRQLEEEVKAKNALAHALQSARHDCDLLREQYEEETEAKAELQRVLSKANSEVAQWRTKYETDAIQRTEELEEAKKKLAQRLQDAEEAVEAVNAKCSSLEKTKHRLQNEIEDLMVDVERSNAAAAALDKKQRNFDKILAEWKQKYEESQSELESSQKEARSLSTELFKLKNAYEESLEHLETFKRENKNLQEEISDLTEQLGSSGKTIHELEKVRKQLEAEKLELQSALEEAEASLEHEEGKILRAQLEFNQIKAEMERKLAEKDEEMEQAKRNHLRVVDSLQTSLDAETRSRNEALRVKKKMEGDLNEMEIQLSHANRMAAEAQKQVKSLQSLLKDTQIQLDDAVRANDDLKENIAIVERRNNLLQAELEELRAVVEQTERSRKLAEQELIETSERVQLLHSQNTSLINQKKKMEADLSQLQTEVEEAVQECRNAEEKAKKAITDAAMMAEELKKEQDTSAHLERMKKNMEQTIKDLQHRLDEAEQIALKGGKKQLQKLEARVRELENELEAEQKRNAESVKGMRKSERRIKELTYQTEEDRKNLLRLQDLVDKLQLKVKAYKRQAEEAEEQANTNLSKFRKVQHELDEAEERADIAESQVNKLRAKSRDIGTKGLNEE
Summary of the method: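 Read-out: A340 kinetic, NADH consumption coupled to ADP via PK-LDH, 75 min. Yucatan minipig LV myofibrils, pCa buffer (PIPES/CaCl2/EGTA, pH 7.0). Linear-regression slope (mAU/min), vehicle = 100%, 4PL fit; Y75 or Y125 reported.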

[4] = Y75 value (75% activity relative to no compound)

| Structure (SMILES) | Skeletal EC25 ([1]; Y75 value) [nM] | Atrial EC25 [2, 4] [nM] | Ventricular EC25 ([3]; Y75 value) [nM] | Skeletal EC25 ([1]; Y75 value (no ‡ mark)) [nM] | Atrial EC25 ([2]; Y75 value (no ‡ mark)) [nM] | Ventricular EC25 ([3]; Y75 value (no ‡ mark)) [nM] |
| --- | --- | --- | --- | --- | --- | --- |
| Cc1nccc2[nH]c(=O)c(CC(=O)N[C@@H](CO)c3cccnc3)c(C)c12 (single isomer, unassigned) [compound 312] | 100000 | 100000 | 100000 |  |  |  |
| C[C@H](NC(=O)Cc1cc2nc(Cl)ncc2[nH]c1=O)c1ccc(F)cc1F [compound 390] | 7060 | 100000 | 44800 |  |  |  |
| Cc1c(CC(=O)N[C@@H](C)c2ccc(C#N)nn2)c(=O)[nH]c2cccc(C#N)c12 [compound 1039] |  |  |  | 80 | 220 | 670 |
| Cc1c(F)ccc2[nH]c(=O)c(C(F)(F)C(=O)N[C@@H](C)c3ncc(C#N)cn3)c(C)c12 (single isomer, unassigned) [compound 4832] |  |  |  | 170 | 120 | 580 |
| COc1nccc2[nH]c(=O)c(CC(=O)N[C@H](C)c3ncc(C#N)cn3)c(C(F)(F)F)c12 (single isomer, unassigned) [compound 3007] | 100000 | 100000 | 5730 |  |  |  |
| Cc1c(CC(=O)N[C@@H](C)c2ccc(C#N)cc2F)c(=O)[nH]c2ccc(C(F)(F)F)nc12 (single isomer, unassigned) [compound 209] | 10 | 30 | 140 |  |  |  |
| Cc1c(CC(=O)N[C@@H](C)c2ccc(C#N)cn2)c(=O)[nH]c2cccc(F)c12 [compound 54] |  |  |  | 40 | 110 | 1530 |
| Cc1nccc2[nH]c(=O)c(CC(=O)N[C@H]3COc4cccnc43)c(C)c12 (single isomer, unassigned) [compound 252] | 100000 | 100000 | 100000 |  |  |  |
| Cc1c(CC(=O)N[C@H](C)c2ccc(C#N)cc2F)c(=O)[nH]c2ccnc(C(F)(F)F)c12 [compound 161] | 110 | 340 | 1190 |  |  |  |
| Cc1c(CC(=O)N[C@H](CO)c2ccc(C#N)cc2F)c(=O)[nH]c2ccnc(C(F)(F)F)c12 (single isomer, unassigned) [compound 224] | 360 | 6570 | 100000 |  |  |  |
| C[C@H](NC(=O)Cc1c(C2CC2)c2cc(F)ccc2[nH]c1=O)c1ncc(C#N)cc1F [compound 40] |  |  |  | 20 | 470 | 410 |
| C[C@H](NC(=O)Cc1c(C2CC2)c2cnccc2[nH]c1=O)c1ccc(F)cc1F [compound 444] | 170 | 1140 | 20820 |  |  |  |
| Cc1c(CC(=O)N[C@H](C)c2ncc(C#N)cc2F)c(=O)[nH]c2ccc(F)c(Cl)c12 (single isomer, unassigned) [compound 2051] |  |  |  | 160 | 430 | 600 |
| Cc1nccc2[nH]c(=O)c(CC(=O)N[C@@H]3COc4cc(F)cc(F)c43)c(C)c12 (single isomer, unassigned) [compound 288] | 20 | 80 | 270 |  |  |  |
| C[C@H](NC(=O)[C@@H](C)c1cc2c(C#N)nccc2[nH]c1=O)c1ccc(F)cc1F (single isomer, unassigned) [compound 361] | 30 | 1290 | 3680 |  |  |  |
| Cc1c(C(F)(F)C(=O)N[C@@H](C)c2cnc(C#N)cn2)c(=O)[nH]c2ccc(F)cc12 (single isomer, unassigned) [compound 2564] |  |  |  | 490 | 510 | 890 |
| C[C@H](NC(=O)Cc1c(C2CC2)c2cc(F)ccc2[nH]c1=O)c1ncc(C#N)cn1 (single isomer, unassigned) [compound 2064] |  |  |  | 260 | 77710 | 32110 |
| Cc1c(C2(C(=O)N[C@@H](C)c3ncc(C#N)cc3F)CC2)c(=O)[nH]c2ccc(F)cc12 (single isomer, unassigned) [compound 2597] |  |  |  | 120 | 90 | 390 |
| C[C@@H](NC(=O)Cc1c(C2CC2)c2c(F)cccc2[nH]c1=O)c1ncc(C#N)cc1F [compound 1143] |  |  |  | 1780 | 1440 | 4450 |
| Cc1c(CC(=O)N[C@@H](CO)c2ccc(F)cc2F)c(=O)[nH]c2ccc(C#N)nc12 [compound 211] | 22090 | 7020 | 53990 |  |  |  |
| N#Cc1cnc2c(c1)OC[C@@H]2NC(=O)Cc1cc2c(F)c(F)ccc2[nH]c1=O (single isomer, unassigned) [compound 14] |  |  |  | 70 | 210 | 340 |
| Cc1c([C@H](C)C(=O)N[C@@H](C)c2ccc(F)cc2F)c(=O)[nH]c2ccnc(Cl)c12 (single isomer, unassigned) [compound 366] | 40 | 140 | 1480 |  |  |  |
| Cc1c(CC(=O)N[C@H](C)c2ncc(C#N)cc2F)c(=O)[nH]c2ccc(F)c(C(F)(F)F)c12 [compound 21] |  |  |  | 40 | 30 | 130 |
| Cc1cc(C#N)cnc1[C@H](C)NC(=O)Cc1c(O)c2c(C)c(F)ccc2[nH]c1=O [compound 1121] |  |  |  | 100000 | 100000 | 100000 |
| Cc1nc(C#N)cnc1[C@H](C)NC(=O)Cc1c(C)c2c(C)nccc2[nH]c1=O [compound 492] | 280 | 80 | 320 |  |  |  |
| Cc1c(CC(=O)NC(C)c2cnc(C#N)cn2)c(=O)[nH]c2ccc(F)c(F)c12 (stereo in doubt) [compound 1145, (S)—N-(1-(5-cyanopyrazin-2-yl)ethyl)-2-(5,6-difluoro-4-methyl-2-oxo-1,2-dihydroquinolin-3-yl)acetamide] |  |  |  | 30 | 60 | 70 |
